Reference: ChEMBL document CHEMBL3044730, “Synthesis, antimycobacterial, antiviral, antimicrobial activities, and QSAR studies of nicotinic acid benzylidene hydrazide derivatives” (Med Chem Res, 2012)
Converted amounts (≈) assume the structure as drawn.

Key:
[1] = tested on: Staphylococcus aureus; experiment: Antimicrobial activity against Staphylococcus aureus after 24 hr by serial dilution method; assay type: functional; parameters: unit not given here
[2] = tested on: Human alphaherpesvirus 1; experiment: Antiviral activity against Human herpesvirus 1 strain KOS infected in human HEL cells assessed as inhibition of virus-induced cytopathicity by microscopy by microscopy; assay type: functional, organism-based; conditions: Human alphaherpesvirus 1, KOS
[3] = tested on: Respiratory syncytial virus; experiment: Antiviral activity against Respiratory syncytial virus infected human HeLa cells assessed as inhibition of virus-induced cytopathicity by microscopy; assay type: functional, organism-based
[4] = tested on: Vaccinia virus; experiment: Antiviral activity against Vaccinia virus infected human HEL cells assessed as inhibition of virus-induced cytopathicity by microscopy; assay type: functional, organism-based; conditions: Orthopoxvirus vaccinia
[5] = tested on: Punta Toro virus; experiment: Antiviral activity against Punta Toro virus infected Vero cells assessed as inhibition of virus-induced cytopathicity; assay type: functional, organism-based
[6] = tested on: Human immunodeficiency virus 1; experiment: Antiviral activity against Human immunodeficiency virus 1 IIIB infected MT4 cells assessed as inhibition of virus-induced cytopathic effect after 4 days by MTT assay; assay type: functional, organism-based; conditions: MT4, 96 h
[7] = tested on: Human immunodeficiency virus 2; experiment: Antiviral activity against Human immunodeficiency virus type 2 (ISOLATE ROD) infected MT4 cells assessed as inhibition of virus-induced cytopathic effect after 4 days by MTT assay; assay type: functional, organism-based; conditions: Human immunodeficiency virus 2, ISOLATE ROD, MT4, 96 h
[8] = Cytotoxicity against Homo sapiens (human) HeLa cells assessed as alteration in cell morphology by microscopy; assay type: cell-based
[9] = tested on: Vesicular stomatitis virus; experiment: Antiviral activity against Vesicular stomatitis virus infected human HeLa cells assessed as inhibition of virus-induced cytopathicity by microscopy; assay type: functional, organism-based
[10] = tested on: Human herpesvirus 5 strain AD169; experiment: Antiviral activity against Human herpesvirus 5 strain AD169 Davis infected human HEL cells assessed as inhibition of virus-induced cytopathicity by microscopy; assay type: functional, organism-based; conditions: Human betaherpesvirus 5, Davis
[11] = tested on: Candida albicans; experiment: Antimicrobial activity against Candida albicans after 2 days by serial dilution method; assay type: functional; parameters: unit not given here
[12] = tested on: Bacillus subtilis; experiment: Antimicrobial activity against Bacillus subtilis after 24 hr by serial dilution method; assay type: functional; parameters: unit not given here
[13] = tested on: Coxsackievirus B4; experiment: Antiviral activity against Human coxsackievirus B4 infected human HeLa cells assessed as inhibition of virus-induced cytopathicity by microscopy; assay type: functional, organism-based; conditions: Enterovirus B
[14] = tested on: Candida albicans; experiment: Antimicrobial activity against Candida albicans after 7 days by serial dilution method; assay type: functional; parameters: unit not given here
[15] = tested on: Human respirovirus 3; experiment: Antiviral activity against Human parainfluenza virus 3 infected Vero cells assessed as inhibition of virus-induced cytopathicity by microscopy; assay type: functional, organism-based; conditions: Human respirovirus 3, Vero
[16] = Cytotoxicity against Chlorocebus aethiops (African green monkey) Vero cells assessed as alteration in cell morphology by microscopy; assay type: cell-based; conditions: chlorocebus sabaeus
[17] = tested on: Coxsackievirus B4; experiment: Antiviral activity against Human coxsackievirus B4 infected Vero cells assessed as inhibition of virus-induced cytopathicity; assay type: functional, organism-based; conditions: Enterovirus B
[18] = tested on: Human alphaherpesvirus 1; experiment: Antiviral activity against TK(-) aciclovir-resistant Human herpesvirus 1 strain KOS infected in human HEL cells assessed as inhibition of virus-induced cytopathicity; assay type: functional, organism-based; conditions: Human alphaherpesvirus 1, KOS
[19] = tested on: Escherichia coli; experiment: Antimicrobial activity against Escherichia coli after 24 hr by serial dilution method; assay type: functional; parameters: unit not given here
[20] = tested on: Mammalian orthoreovirus 1; experiment: Antiviral activity against Mammalian orthoreovirus 1 infected Vero cells assessed as inhibition of virus-induced cytopathicity by microscopy; assay type: functional, organism-based; conditions: Mammalian orthoreovirus 1, Vero
[21] = Cytotoxicity against Homo sapiens (human) HEL cells assessed as alteration in cell morphology by microscopy; assay type: cell-based
[22] = tested on: Mycobacterium tuberculosis; experiment: Antimicrobial activity against Mycobacterium tuberculosis by agar dilution method; assay type: functional
[23] = tested on: Sindbis virus; experiment: Antiviral activity against Sindbis virus infected Vero cells assessed as inhibition of virus-induced cytopathicity; assay type: functional, organism-based
[24] = Cytotoxicity against Homo sapiens (human) MT4 cells after 4 days by MTT assay; assay type: cell-based
[25] = tested on: Human herpesvirus 3 strain Oka vaccine; experiment: Antiviral activity against Human herpesvirus 3 strain Oka vaccine OKA 07-1 (Varicella zoster virus) infected in human HEL cells assessed as inhibition of virus-induced cytopathicity; assay type: functional, organism-based; conditions: Human alphaherpesvirus 3, OKA 07-1, HEL
[26] = tested on: Human alphaherpesvirus 2; experiment: Antiviral activity against Human herpesvirus 2 strain G infected human HEL cells assessed as inhibition of virus-induced cytopathicity by microscopy; assay type: functional, organism-based; conditions: Human alphaherpesvirus 2, strain G

| Compound | -logMIC [1] | EC50 [7] [µg/mL] | -logMIC [11] | -logMIC [12] | -logMIC [14] | -logMIC [19] | MIC [22] [µg/mL] | CC50 at 96 h [24] [µg/mL] | further results |
| --- | --- | --- | --- | --- | --- | --- | --- | --- | --- |
| O=C(N/N=C/c1ccc(O)cc1)c1cccnc1 | 1.29 | > 104 | 1.28 | 1.29 | 1.59 | 1.29 | > 25 | 104 (≈ 431 µM) | EC50 [2]: > 100 µg/mL; EC50 [3]: > 100 µg/mL; EC50 [4]: > 100 µg/mL; EC50 [5]: > 100 µg/mL; EC50 [6]: > 104 µg/mL; MCC [8]: > 100 µg/mL; EC50 [9]: > 100 µg/mL; EC50 [10]: > 100 µg/mL; EC50 [13]: > 100 µg/mL; EC50 [15]: > 100 µg/mL; MCC [16]: > 100 µg/mL; EC50 [17]: > 100 µg/mL; EC50 [18]: > 100 µg/mL; EC50 [20]: > 100 µg/mL; CC50 [21]: 91 µg/mL (≈ 377 µM); MCC [21]: > 100 µg/mL; EC50 [23]: > 100 µg/mL; EC50 [25]: 54 µg/mL (≈ 224 µM); EC50 [26]: > 100 µg/mL |
| O=C(O)c1cn(C2CC2)c2cc(N3CCNCC3)c(F)cc2c1=O [CIPROFLOXACIN] |  |  |  |  |  |  | 3.13 (≈ 9.45 µM) |  |  |
| CC[C@@H](CO)NCCN[C@@H](CC)CO [ETHAMBUTOL] |  |  |  |  |  |  | 1.56 (≈ 7.64 µM) |  |  |
| OC(Cn1cncn1)(Cn1cncn1)c1ccc(F)cc1F [FLUCONAZOLE] |  |  | 2.64 |  | 2.64 |  |  |  |  |
| NNC(=O)c1ccncc1 [ISONIAZID] |  |  |  |  |  |  | 0.1 (≈ 0.729 µM) |  |  |
| Cc1ccnc2c1NC(=O)c1cccnc1N2C1CC1 [NEVIRAPINE] |  | 4 (≈ 15 µM) |  |  |  |  |  | > 4 | EC50 [6]: 0.05 µg/mL (≈ 0.188 µM) |
| NNC(=O)c1cccnc1 [NICOTINIC ACID HYDRAZIDE] | 0.74 |  | 1.04 | 1.04 | 1.04 | 0.74 |  |  |  |
| CCn1cc(C(=O)O)c(=O)c2cc(F)c(N3CCNCC3)cc21 [NORFLOXACIN] | 2.61 |  |  | 2.61 |  | 2.61 |  |  |  |
| Cc1cn([C@H]2C[C@H](N=[N+]=[N-])[C@@H](CO)O2)c(=O)[nH]c1=O [ZIDOVUDINE] |  | 0.0009 (≈ 0.00337 µM) |  |  |  |  |  | > 2.5 |  |
